# Measured values as given in ChEMBL document CHEMBL1201862, “PubChem BioAssay data set” (2004).
# The source made the active and inactive calls. Rule as the data show it, for most assays here: active = IC50 of 10 µM or less and inactive = more.
# Columns and labels:
# Format in all cases: functional
# [1] = target: DNA dC->dU-editing enzyme APOBEC-3A (Homo sapiens, UniProt P31941); assay: SAR analysis of small molecule inhibitors of APOBEC3A DNA Deaminase via a fluorescence-based single-stranded DNA deaminase assay.; conditions: read-out: IC50_Mean
# [2] = target: DNA dC->dU-editing enzyme APOBEC-3G (Homo sapiens, UniProt Q9HC16); assay: APOBEC3G deaminase inhibitors, SAR follow-up, biochemical, fluorescence, single-stranded DNA substrate (AID 602136); conditions: read-out: IC50_Mean
# [3] = target: DNA (cytosine-5)-methyltransferase 1 (Homo sapiens, UniProt P26358); assay: DNMT1 methyltransferase inhibitors, confirmation, biochemical, fluorescent molecular beacon (AID 602386)
# Orexin receptor type 2 [4] = target: T1, Orexin receptor type 2 (Homo sapiens, UniProt O43614); assay: Counterscreen assay for antagonists of the orexin 1 receptor (OX1R; HCRTR1): Homogeneous Time Resolved Fluorescence (HTRF)-based cell-based dose response assay for antagonists of the orexin 2 receptor (OX2R; HCRTR2), run by assay provider.
# T1 sequence (O43614 whole entry): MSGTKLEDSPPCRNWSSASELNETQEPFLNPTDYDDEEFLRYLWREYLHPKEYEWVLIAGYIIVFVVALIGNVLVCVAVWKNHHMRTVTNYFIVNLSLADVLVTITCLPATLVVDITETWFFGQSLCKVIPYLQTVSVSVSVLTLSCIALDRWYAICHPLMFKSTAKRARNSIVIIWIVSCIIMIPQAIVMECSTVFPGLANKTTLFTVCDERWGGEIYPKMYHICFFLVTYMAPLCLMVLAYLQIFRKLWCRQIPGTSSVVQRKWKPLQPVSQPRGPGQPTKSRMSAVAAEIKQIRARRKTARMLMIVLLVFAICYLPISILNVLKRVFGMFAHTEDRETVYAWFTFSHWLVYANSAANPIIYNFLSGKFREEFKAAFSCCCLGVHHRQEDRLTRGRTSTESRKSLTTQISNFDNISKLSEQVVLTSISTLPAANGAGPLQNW
# Orexin receptor type 2 [5] = target: T1, Orexin receptor type 2; assay: Counterscreen assay for antagonists of the orexin 1 receptor (OX1R; HCRTR1): Fluorescence-based cell-based dose response assay for antagonists of the orexin 2 receptor (OX2R; HCRTR2), run by assay provider.
# [6] = target: T2, Orexin/Hypocretin receptor type 1 (Homo sapiens, UniProt O43613); assay: (§1) Fluorescence-based cell-based high throughput dose response assay for antagonists of the orexin 1 receptor (OX1R; HCRTR1). [Related pubchem assays (depositor defined):AID434989, AID435008, AID463079, AID485270, AID492963, AID492964, AID492965, AID493232, AID504717, AID504718]
# T2 sequence (O43613 whole entry): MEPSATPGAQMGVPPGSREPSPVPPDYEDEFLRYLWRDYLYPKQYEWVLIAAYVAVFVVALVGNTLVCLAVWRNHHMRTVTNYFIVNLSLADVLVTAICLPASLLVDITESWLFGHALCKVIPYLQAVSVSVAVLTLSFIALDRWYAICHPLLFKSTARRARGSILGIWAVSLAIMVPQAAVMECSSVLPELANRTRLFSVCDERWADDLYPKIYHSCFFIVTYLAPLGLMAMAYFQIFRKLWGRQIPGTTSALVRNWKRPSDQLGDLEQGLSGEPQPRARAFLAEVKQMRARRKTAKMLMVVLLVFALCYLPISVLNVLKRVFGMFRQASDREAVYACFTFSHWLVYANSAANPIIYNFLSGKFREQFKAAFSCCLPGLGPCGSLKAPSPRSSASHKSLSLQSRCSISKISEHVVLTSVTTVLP
# CHO-K1 = assay: (§2) Counterscreen for antagonists of the orexin 1 receptor (OX1R; HCRTR1): Homogeneous time resolved fluorescence (HTRF)-based cell-based dose response assay to identify antagonists of the parental CHO-K1 cell line. [Related pubchem assays (depositor defined):AID434989, AID435008, AID463079, AID485270, AID492963, AID492964, AID492965, AID493232, AID504699, AID504701]; conditions: Cricetulus griseus
# [7] = as §2, with “Fluorescence-based” for “Homogeneous time resolved fluorescence (HTRF)-based”, “cell-based high throughput” for “cell-based”, “CHO” for “CHO-K1”
# [8] = target: T2, Orexin/Hypocretin receptor type 1; assay: as §1, with “Homogeneous Time Resolved Fluorescence (HTRF)-based” for “Fluorescence-based”
# DNA dC->dU-editing enzyme APOBEC-3A, sequence (P31941 whole entry): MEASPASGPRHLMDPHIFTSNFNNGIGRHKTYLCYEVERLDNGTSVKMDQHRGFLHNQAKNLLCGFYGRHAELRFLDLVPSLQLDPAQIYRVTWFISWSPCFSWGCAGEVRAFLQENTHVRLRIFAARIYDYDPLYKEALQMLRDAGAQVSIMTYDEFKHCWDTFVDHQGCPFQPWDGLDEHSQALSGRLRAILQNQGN
# DNA dC->dU-editing enzyme APOBEC-3G, sequence (Q9HC16 whole entry): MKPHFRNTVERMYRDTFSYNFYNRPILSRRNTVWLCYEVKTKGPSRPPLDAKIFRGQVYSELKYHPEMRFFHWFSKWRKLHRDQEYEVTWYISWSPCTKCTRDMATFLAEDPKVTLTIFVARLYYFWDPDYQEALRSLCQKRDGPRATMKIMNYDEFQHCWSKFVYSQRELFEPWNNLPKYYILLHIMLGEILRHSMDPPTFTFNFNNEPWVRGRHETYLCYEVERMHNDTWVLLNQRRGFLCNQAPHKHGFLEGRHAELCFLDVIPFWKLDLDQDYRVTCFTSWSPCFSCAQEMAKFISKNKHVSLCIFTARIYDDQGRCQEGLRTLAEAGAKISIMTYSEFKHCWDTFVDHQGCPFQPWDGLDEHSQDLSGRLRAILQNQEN
# DNA (cytosine-5)-methyltransferase 1, sequence (P26358 whole entry): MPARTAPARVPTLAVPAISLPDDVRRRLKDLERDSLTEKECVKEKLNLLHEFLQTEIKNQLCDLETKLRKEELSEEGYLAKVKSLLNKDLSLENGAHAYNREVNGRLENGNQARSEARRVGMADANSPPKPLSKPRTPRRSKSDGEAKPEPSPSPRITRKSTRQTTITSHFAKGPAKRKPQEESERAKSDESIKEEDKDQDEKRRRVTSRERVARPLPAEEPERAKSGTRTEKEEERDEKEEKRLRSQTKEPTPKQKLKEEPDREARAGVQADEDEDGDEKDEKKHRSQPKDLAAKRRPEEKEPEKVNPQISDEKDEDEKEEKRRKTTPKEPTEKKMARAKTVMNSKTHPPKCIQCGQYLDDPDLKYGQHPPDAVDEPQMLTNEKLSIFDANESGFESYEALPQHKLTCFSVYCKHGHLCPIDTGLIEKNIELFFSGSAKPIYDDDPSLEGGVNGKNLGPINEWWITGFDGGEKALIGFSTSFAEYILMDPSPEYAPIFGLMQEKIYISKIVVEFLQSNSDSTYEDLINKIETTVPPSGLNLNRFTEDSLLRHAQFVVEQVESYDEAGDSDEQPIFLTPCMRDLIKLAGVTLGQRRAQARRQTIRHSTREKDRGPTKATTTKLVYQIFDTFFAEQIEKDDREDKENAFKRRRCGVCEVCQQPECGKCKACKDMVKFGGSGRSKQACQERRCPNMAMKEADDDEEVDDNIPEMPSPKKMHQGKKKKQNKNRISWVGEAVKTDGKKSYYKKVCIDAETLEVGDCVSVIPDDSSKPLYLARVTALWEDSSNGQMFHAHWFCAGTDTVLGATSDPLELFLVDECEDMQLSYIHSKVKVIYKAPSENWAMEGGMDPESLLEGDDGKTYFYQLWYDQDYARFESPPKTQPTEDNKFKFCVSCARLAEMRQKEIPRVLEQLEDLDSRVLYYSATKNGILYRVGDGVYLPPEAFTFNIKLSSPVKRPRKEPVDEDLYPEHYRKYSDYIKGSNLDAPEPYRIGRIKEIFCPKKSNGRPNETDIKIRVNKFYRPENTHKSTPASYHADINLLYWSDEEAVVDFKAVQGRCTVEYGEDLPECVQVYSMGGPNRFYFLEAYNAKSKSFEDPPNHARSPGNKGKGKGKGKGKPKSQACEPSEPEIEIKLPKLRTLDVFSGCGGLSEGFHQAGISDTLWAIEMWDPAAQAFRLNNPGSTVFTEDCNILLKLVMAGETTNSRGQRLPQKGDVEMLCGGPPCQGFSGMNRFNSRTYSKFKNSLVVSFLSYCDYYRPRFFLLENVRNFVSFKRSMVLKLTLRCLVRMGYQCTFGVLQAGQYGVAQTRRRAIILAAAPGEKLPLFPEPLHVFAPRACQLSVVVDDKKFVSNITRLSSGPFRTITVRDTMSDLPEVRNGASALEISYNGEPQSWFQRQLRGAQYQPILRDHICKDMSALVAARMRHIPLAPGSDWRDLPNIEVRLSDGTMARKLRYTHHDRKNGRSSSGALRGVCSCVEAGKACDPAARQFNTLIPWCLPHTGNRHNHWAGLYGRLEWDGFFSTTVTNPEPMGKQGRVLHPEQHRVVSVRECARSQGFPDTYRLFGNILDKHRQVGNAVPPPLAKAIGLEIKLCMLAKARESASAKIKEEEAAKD
smiles,measurement,setting,value
Cc1ccc(Cl)c2c1N[C@@H](c1ccccc1Br)[C@H]1CC=C[C@@H]21,IC50,[1],> 99 µM (inactive)
same,IC50,[2],> 99 µM (inactive)
Cc1ccc2cc3c(N)c4c(C)ccc(C)c4nc3nc2c1,IC50,[3],> 99 µM (inactive)
N#CC(=C1CCCC1)c1nc(-c2ccccc2O)cs1,IC50,Orexin receptor type 2 [4],19.8 µM (inactive)
same,IC50,Orexin receptor type 2 [5],31.6 µM (inactive)
same,IC50,[6],6.43 µM (active)
same,IC50,CHO-K1,> 66.2 µM (inactive)
same,IC50,[7],> 49.7 µM (inactive)
same,IC50,[8],6.33 µM (active)
